According to ChEMBL document CHEMBL5230089, “Small-Molecule Fms-like Tyrosine Kinase 3 Inhibitors: An Attractive and Efficient Method for the Treatment of Acute Myeloid Leukemia” (J Med Chem, 2020):

How the values were obtained:
[1] = biological target: T1, Receptor-type tyrosine-protein kinase FLT3 (Homo sapiens, UniProt P36888, ITD)
Aurora kinase A = biological target: T2, Aurora kinase A (Homo sapiens, UniProt O14965); assay: Inhibition of Aurora-A (unknown origin) by kinase-glo luminescent assay
T2 sequence (O14965 whole entry): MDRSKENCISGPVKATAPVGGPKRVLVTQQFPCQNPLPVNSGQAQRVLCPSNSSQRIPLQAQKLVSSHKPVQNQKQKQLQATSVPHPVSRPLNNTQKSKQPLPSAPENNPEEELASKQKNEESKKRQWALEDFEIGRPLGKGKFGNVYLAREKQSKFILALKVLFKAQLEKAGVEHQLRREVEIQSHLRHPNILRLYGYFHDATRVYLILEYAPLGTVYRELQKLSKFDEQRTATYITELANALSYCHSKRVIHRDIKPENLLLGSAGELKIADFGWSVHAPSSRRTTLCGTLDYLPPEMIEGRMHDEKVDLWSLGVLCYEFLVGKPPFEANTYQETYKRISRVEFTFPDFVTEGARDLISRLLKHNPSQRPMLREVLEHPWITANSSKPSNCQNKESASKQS

HL-60 = assay: Growth inhibition of human HL-60 cells incubated for 4 days by WST assay; assay type: functional; settings: HL-60, 96 h, time 4 day
MV4-11 [2] = assay: Growth inhibition of human MV4-11 cells incubated for 72 hrs by CCK-8 assay; assay type: functional
MOLM-13 [3] = assay: cells; settings: Homo sapiens, MOLM-13, 72 h
Description: Cytotoxicity against human MOLM-13 cells assessed as reduction in cell viability incubated for 72 hrs

MV4-11 [4] = assay: cells; settings: Homo sapiens, MV4-11, 48 h
Description: Antiproliferative activity against human MV4-11 cells assessed as reduction in cell viability after 48 hrs by Alamar Blue assay

MOLM-14 [5] = assay: Cytotoxicity against human MOLM-14 cells assessed as reduction in cell viability incubated for 72 hrs; assay type: functional, cell-based; settings: MOLM-14, 72 h
MOLM-14 [6] = assay: cells; settings: Homo sapiens, MOLM-14, 72 h
MOLM-13 [7] = assay: cells; settings: Homo sapiens, MOLM-13, 72 h; remark: listed apart in the source
MV4-11 [8] = assay: cells; settings: Homo sapiens, MV4-11, 72 h
Description: Cytotoxicity against human MV4-11 cells assessed as cell viability incubated for 72 hrs by Cell titer-blue assay

BaF3 = assay: cells; settings: Mus musculus, BaF3, 72 h
MOLM-13 [9] = assay: Cytotoxicity against human MOLM-13 cells assessed as cell viability incubated for 72 hrs by Cell titer-blue assay; assay type: functional, cell-based; settings: MOLM-13, 72 h
MV4-11 [10] = assay: Cytotoxicity activity against human MV4-11 cells assessed as reduction in cell viability measured after 48 hrs; assay type: functional, cell-based; settings: MV4-11, 48 h
MOLM-13 [11] = assay: Cytotoxicity activity against human MOLM-13 cells assessed as reduction in cell viability measured after 48 hrs; assay type: functional, cell-based; settings: MOLM-13, 48 h
MV4-11 [12] = assay: Antiproliferative activity against human MV4-11 cells assessed as reduction in cell proliferation measured after 24 hrs by MTT assay; assay type: functional, cell-based; settings: MV4-11, 24 h
[13] = Antiproliferative activity against human MOLM16 cells expressing FLT3-ITD mutant assessed as inhibition of cell proliferation measured after 72 hrs by celltiter-glo luminescent cell viability assay; assay type: functional, cell-based, MOLM-16; settings: MOLM16, 72 h
[14] = biological target: T3, Receptor-type tyrosine-protein kinase FLT3 (Homo sapiens, UniProt P36888); assay: Inhibition of FLT3 (unknown origin) by ADP-Glo kinase assay
T3 sequence (P36888 whole entry): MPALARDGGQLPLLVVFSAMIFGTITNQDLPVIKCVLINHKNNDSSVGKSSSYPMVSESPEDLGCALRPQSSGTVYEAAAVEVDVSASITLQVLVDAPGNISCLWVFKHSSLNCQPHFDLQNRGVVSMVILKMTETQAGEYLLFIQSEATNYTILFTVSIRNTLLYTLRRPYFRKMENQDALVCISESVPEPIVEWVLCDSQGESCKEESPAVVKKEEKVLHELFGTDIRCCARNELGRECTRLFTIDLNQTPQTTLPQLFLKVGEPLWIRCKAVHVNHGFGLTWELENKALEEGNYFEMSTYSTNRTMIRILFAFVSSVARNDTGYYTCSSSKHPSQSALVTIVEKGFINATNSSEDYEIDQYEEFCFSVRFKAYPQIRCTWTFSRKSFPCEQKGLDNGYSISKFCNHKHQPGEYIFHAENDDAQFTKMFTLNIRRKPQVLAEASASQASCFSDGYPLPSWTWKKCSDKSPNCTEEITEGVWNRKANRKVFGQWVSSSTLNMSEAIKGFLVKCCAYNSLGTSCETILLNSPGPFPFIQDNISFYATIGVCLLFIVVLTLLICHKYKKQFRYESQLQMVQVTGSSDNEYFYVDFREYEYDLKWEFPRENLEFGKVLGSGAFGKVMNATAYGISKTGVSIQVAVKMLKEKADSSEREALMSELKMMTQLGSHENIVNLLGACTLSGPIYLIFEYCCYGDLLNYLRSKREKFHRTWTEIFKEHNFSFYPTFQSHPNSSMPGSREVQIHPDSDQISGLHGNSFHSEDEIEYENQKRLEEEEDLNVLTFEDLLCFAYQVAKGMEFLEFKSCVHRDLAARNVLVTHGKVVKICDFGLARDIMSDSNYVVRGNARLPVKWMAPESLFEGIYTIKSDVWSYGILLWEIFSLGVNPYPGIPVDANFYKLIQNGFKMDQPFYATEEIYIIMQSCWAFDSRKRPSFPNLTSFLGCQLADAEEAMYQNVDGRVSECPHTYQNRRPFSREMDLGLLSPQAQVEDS

MOLM-13 [15] = assay: Antiproliferative activity against human MOLM-13 cells assessed as reduction in cell viability measured after 48 hrs by MTT assay; assay type: functional, cell-based; settings: MOLM-13, 48 h
[16] = biological target: T1, Receptor-type tyrosine-protein kinase FLT3; assay: Inhibition of FLT3-ITD mutant (unknown origin) expressed in mouse BaF3 cells assessed as inhibition; assay type: cell-based
[17] = biological target: Receptor-type tyrosine-protein kinase FLT3 (Homo sapiens, UniProt P36888, D835Y); assay: Inhibition of FLT3-D835Y mutant (unknown origin)
[18] = system: Receptor-type tyrosine-protein kinase FLT3 (Homo sapiens), P36888 [UNDEFINED MUTATION]
[19] = biological target: Receptor-type tyrosine-protein kinase FLT3 (Homo sapiens, UniProt P36888); assay: Binding affinity to human FLT3 assessed as dissociation constant
RS4-11 = assay: Growth inhibition human RS4-11 cell assessed as reduction in cell viability at 50 uM measured after 72 hrs by CCK8 assay; assay type: functional
[20] = biological target: T3, Receptor-type tyrosine-protein kinase FLT3; assay: Inhibition of FLT3 (unknown origin)
MV4-11 [21] = assay: Growth inhibition of human MV4-11 cells assessed as reduction in cell viability at 50 uM measured after 72 hrs by CCK8 assay; assay type: functional

Structure (SMILES): COc1ccc(C(=O)NC(=O)Nc2ccc3c(c2)NC(=O)/C3=C\c2[nH]c(C)c(C(=O)NCCN3CCCC3)c2C)c(F)c1
- IC50 [1]: 0.5 nM
- IC50 (Aurora kinase A): 0.4 nM

Structure (SMILES): CNCCOc1ccc(-c2sc3nc(-c4cccs4)nc(NN4C(=O)C=C(C)C4=O)c3c2C)cc1
- GI50 (HL-60): 250 nM
- GI50 (MV4-11 [2]): 540 nM

Structure (SMILES): Cc1cc2ncc(-c3ccc(NC(=O)Nc4cc(C(C)(C)C)on4)cc3)nc2cc1C
- IC50 [1]: 71 nM

Structure (SMILES): Cc1[nH]c(/C=C2\C(=O)Nc3ccc(F)cc32)c(C)c1NC(=O)[C@@H]1CCCN1
- IC50 [1]: 5.3 nM
- IC50 (MOLM-13 [3]): 23.6 nM
- IC50 (MV4-11 [4]): 24.8 nM

Structure (SMILES): CC1(COc2ccc3c(c2)ncn3-c2ccc3cccc(N4CCC(N)CC4)c3n2)COC1 [CRENOLANIB]
- IC50 (MOLM-13 [3]): 4.9 nM
- IC50 (MOLM-14 [5]): 2 nM
- IC50 (MV4-11 [4]): 1.3 nM
- IC50 (MOLM-14 [6]): 2 nM
- IC50 (MOLM-13 [7]): 2 nM
- IC50 (MV4-11 [8]): 0.92 nM
- IC50 (BaF3): 1.3 nM
- IC50 (MOLM-13 [9]): 2.9 nM

Structure (SMILES): CC(=O)OC[C@H]1O[C@@H](N2N=C(C(F)(F)F)/C(=N\Nc3cccc(C(F)(F)F)c3)C2=O)[C@H](OC(C)=O)[C@@H](OC(C)=O)[C@@H]1OC(C)=O
- IC50 (MV4-11 [10]): 4700 nM
- IC50 (MOLM-13 [11]): 4040 nM

Structure (SMILES): C[C@]12O[C@H](C[C@H](O)[C@H]1O)n1c3ccccc3c3c4c(c5c6ccccc6n2c5c31)C(=O)NC4=O
- IC50 (MV4-11 [12]): 12.3 nM
- IC50 (MOLM-13 [7]): 13 nM
- IC50 [13]: 27 nM

Structure (SMILES): COc1cc2c(Oc3ccc(NC(=O)Nc4cccc(C)c4)cc3F)ccnc2cc1OCCCN1CCOCC1
- IC50 [14]: 9 nM
- IC50 (MOLM-13 [15]): 0.24 nM
- IC50 [16]: 1.1 nM

Structure (SMILES): CC1=CC(=O)N(Nc2nc(-c3cccs3)nc3sc(C)c(C)c23)C1=O
- IC50 [1]: 16 nM
- GI50 (HL-60): > 10000 nM
- IC50 [17]: 21 nM
- GI50 (MV4-11 [2]): 216 nM

Structure (SMILES): Cc1cc2ncc(-c3ccccc3)nc2cc1C [AG1295]
- IC50 (MV4-11 [4]): 2200 nM
- IC5 [18]: 32 nM

Structure (SMILES): Cc1ccc(C(=O)Nc2ccc(CN3CCN(C)CC3)c(C(F)(F)F)c2)cc1C#Cc1c(N)ncc2ccc(Cl)cc12
- IC50 [1]: 6.5 nM
- IC50 (MV4-11 [4]): 0.49 nM
- IC50 (MOLM-14 [6]): 0.72 nM

Structure (SMILES): CC(C)Nc1ccnc(Nc2cccc(-c3cccnc3)c2)n1
- EC50 (MV4-11 [8]): 25 nM
- Kd [19]: 3.6 nM

Structure (SMILES): O=C(c1ccncc1)N1CCc2nc(-c3cc4cc(F)ccc4[nH]c3=O)[nH]c2C1
- GI50 (RS4-11): 6300 nM
- IC50 [20]: 2.7 nM
- GI50 (MV4-11 [21]): 110 nM
